Reference: article PMC6581923 (Journal of Molecular Neuroscience, 2018)
Entries after “also recorded” stand apart in the source; their conditions may differ.

Key:
[1] = target: T1, PAC1-R (Homo sapiens, UniProt P41586); assay: cAMP accumulation assay in PAC1-CHO cells; format: cell-based
T1 construct: expressed in transfected cells; host or cells: PAC1-CHO cells (CHO cells expressing PAC1-R); That they are transfected is inferred from the cell line's name
T1 sequence (P41586 21-468): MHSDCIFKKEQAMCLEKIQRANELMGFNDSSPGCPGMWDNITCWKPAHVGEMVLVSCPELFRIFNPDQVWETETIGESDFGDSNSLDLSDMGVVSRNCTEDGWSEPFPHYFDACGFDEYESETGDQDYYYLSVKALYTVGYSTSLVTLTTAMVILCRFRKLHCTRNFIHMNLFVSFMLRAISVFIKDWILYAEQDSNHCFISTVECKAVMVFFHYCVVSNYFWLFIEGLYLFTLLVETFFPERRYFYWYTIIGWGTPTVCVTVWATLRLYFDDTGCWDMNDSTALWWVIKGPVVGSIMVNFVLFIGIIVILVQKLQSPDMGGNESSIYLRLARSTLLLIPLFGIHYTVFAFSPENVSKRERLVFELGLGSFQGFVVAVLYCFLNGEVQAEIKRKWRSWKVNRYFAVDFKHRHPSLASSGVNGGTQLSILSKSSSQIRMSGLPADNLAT
Procedure: PAC1-CHO cells cultured in Dulbecco’s Modified Eagle’s Medium (DMEM) at 37 °C were scraped off the surface with rubber policeman, washed twice with PBS and the density of the cells was adjusted to 2 × 10^6 /mL. Peptides were added to 500 uL cells suspension with the corresponding varying working concentrations of the detected factor. After incubation at 37 °C for 5-10 min cells were harvested and the lysates were subjected to cAMP quantification using the enzyme immunoassay kit for cAMP (Biyuntian, Shanghai, China), following the manufacturer’s instructions. Protein concentration of each sample was determined using BCA assay, and the cAMP level of each sample was calculated following the formula: cAMP level (pmol/mg protein) = cAMP concentration (pmol/mL)/protein concentration (mg/mL). The cAMP level in each sample was plotted as the percentage (%) of the maximal cAMP level in cells treated with PACAP27 versus the logarithmic value of the peptide concentrations. All experiments were run with at least four parallel samples and were repeated three times.
The data are means ± SEM of four experiments

[2] = system: retina (BCCAO-induced retinopathy); assay: Retinal layer thickness / morphology after bilateral carotid artery occlusion (BCCAO), eye drops; format: in vivo, rat (male); details: for Retinoprotective efficacy of eye drops, overall / compared with untagged peptide: topical eye drops in SOCB
Procedure: Adult male rat litters were housed in the animal facility in individual cages in a 12 h light-dark cycle with food and water ad libitum. Animal housing, care and application of experimental procedures were in accordance with institutional guidelines under approved protocols (No: BA02/2000–26/2017, University of Pecs). Under isoflurane anesthesia, common carotid arteries were exposed on both sides through a midline incision and then ligated with a 3–0 filament. A group of animals (sham group) underwent all steps of the operating procedure except ligation of the carotid arteries. Immediately following the operation, the right eye of the animals was treated with derivatives of PACAP (PACAP-TAT /n = 17/ or VIP-TAT /n = 17/) eye drops (1 μg/drop). Dose and schedule of the eye drop treatments were based on our previous experiments (Werling et al. [2016]). In the experiment for histological analysis, the different derivatives were dissolved in benzalkonium solution for ophthalmic use (solutio ophthalmica cum benzalkonio (SOCB)). The left eye, serving as a control, was treated with vehicle containing neither PACAP-TAT nor VIP-TAT. Animals were treated for five consecutive days, twice a day with one drop of drug, under brief isoflurane anesthesia (max. 5 min).
Fourteen days after the operation, rats (n = 10 SHAM and n = 24 BCCAO) were killed with anesthetic and the eyes were processed for histology. The eyes were removed and the retinas were solved in phosphate buffered saline (PBS), fixed in 4% paraformaldehyde dissolved in 0.1 M phosphate buffer (PB) (Sigma, Budapest, Hungary) and embedded in Durcupan ACM resin (Sigma, Budapest, Hungary). Retinas were cut at 2 μm and stained with toluidine blue dye (Sigma, Hungary). Sections were mounted in DPX medium (Sigma, Hungary) and photographs were taken with a digital CCD camera using the Spot program. Central retinal areas within 1 mm from the optic nerve were used (n = 5 measurements from one tissue block). The following parameters were measured: (i) cross-section of the retina from the outer limiting membrane (OLM) to the inner limiting membrane (ILM), (ii) the width of individual retinal layers (outer nuclear layer [ONL], outer plexiform layer [OPL], inner nuclear layer [INL], inner plexiform layer [IPL]), (iii) the number of cells/100 μm section length in the GCL, and the (iv) number of cells/[…]. Results are presented as mean ± SEM. Statistical comparisons were made using the two-way ANOVA test followed by Tukey’s post hoc analysis.
(§1) Fig. 4 Quantification of retinal layers in SHAM+SOCB, in SHAM+PACAP-TAT, in BCCAO+SOCB, and in BCCAO+PACAP-TAT animals; the right eye was treated with PACAP-TAT eye drops, the left eye served as controls receiving only SOCB. Comparison of all retinal layers (a–e). […] Statistical significance (*p < 0.05 vs. SHAM+SOCB retinas, #p < 0.05 vs. BCCAO+SOCB retinas) was calculated by two-way ANOVA followed by Fischer’s post hoc test
as §1, with “6” for “4”, “SHAM+VIP-TAT,” for “SHAM+PACAP-TAT,”, “BCCAO+VIP-TAT” for “BCCAO+PACAP-TAT”, “VIP-TAT” for “PACAP-TAT”, “control” for “controls”

## CC[C@H](C)[C@H](NC(=O)[C@H](CO)NC(=O)[C@H](CC(N)=O)NC(=O)[C@H](CC(C)C)NC(=O)[C@H](Cc1ccc(O)cc1)NC(=O)[C@H](CCCCN)NC(=O)[C@H](CCCCN)NC(=O)[C@@H](NC(=O)[C@H](C)NC(=O)[C@H](CCSC)NC(=O)[C@H](CCC(N)=O)NC(=O)[C@H](CCCCN)NC(=O)[C@H](CCCNC(=N)N)NC(=O)[C@H](CC(C)C)NC(=O)[C@H](CCCNC(=N)N)NC(=O)[C@@H](NC(=O)[C@H](Cc1ccc(O)cc1)NC(=O)[C@H](CC(N)=O)NC(=O)[C@H](CC(=O)O)NC(=O)[C@@H](NC(=O)[C@H](Cc1ccccc1)NC(=O)[C@@H](NC(=O)[C@H](C)NC(=O)[C@H](CC(=O)O)NC(=O)[C@H](CO)NC(=O)[C@@H](N)Cc1c[nH]cn1)C(C)C)[C@@H](C)O)[C@@H](C)O)C(C)C)C(=O)N[C@@H](CC(C)C)C(=O)N[C@@H](CC(N)=O)C(=O)NCC(=O)N[C@@H](CCCNC(=N)N)C(=O)N[C@@H](CCCCN)C(=O)N[C@@H](CCCCN)C(=O)N[C@@H](CCCNC(=N)N)C(=O)N[C@@H](CCCNC(=N)N)C(=O)N[C@@H](CCC(N)=O)C(=O)N[C@@H](CCCNC(=N)N)C(=O)N[C@@H](CCCNC(=N)N)C(=O)N[C@@H](CCCNC(=N)N)C(=O)N1CCC[C@H]1C(=O)N[C@@H](CCC(N)=O)C(=O)O [VIP-TAT]
[1]; VIP-TAT vs VIP
  EC50 as fraction of the EC50 of VIP: about 1/200
[1]; tagged vs untagged peptide
  Effect of TAT-tagging on activation of PAC1-R (cAMP), in words: enhanced the activity of VIP on the activation of PAC1-R
[2]; BCCAO + eye drops, OPL almost disappeared in several BCCAO-induced degenerated retinas
  OPL preservation after BCCAO: preserved
[2]; BCCAO + eye drops, toluidine blue sections, 14 days, severe degeneration in BCCAO+SOCB
  Retinal degeneration in light microphotographs after BCCAO: only mild degeneration
[2]; BCCAO
  Retinoprotective efficacy of eye drops, overall / compared with untagged peptide: attenuate ischemic retinal degeneration via the PAC1 receptor
[2]; BCCAO, listed as TAT-bound VIP
  Retinoprotective efficacy of eye drops, overall / compared with untagged peptide: a similar degree of protection
[2]; BCCAO, listed as VIP bound to TAT peptide
  Retinoprotective efficacy of eye drops, overall / compared with untagged peptide: could effectively traverse the ocular barriers and exert a neuroprotective effect in the retina; also recorded: much stronger retinoprotective effects when bound to TAT
[2]; BCCAO, eye drops 1 μg/drop, twice a day, five consecutive days, in SOCB, right eye, left eye SOCB control, 14 days, p < 0.05 vs. BCCAO+SOCB
  Retinal layer thickness (OLM-ILM, ONL, OPL, INL, IPL) after BCCAO: significant amelioration in all retinal layers; also recorded: improved the structure of all the retinal layers
[2]; eye drops alone in sham animals, 1 μg/drop, twice a day, five consecutive days, in SOCB, histology 14 days after operation
  Change of retinal thickness in sham animals: did not cause any changes in the retinal thickness
